{
  "source": "patent US20230250417A1",
  "about": "“METHODS FOR DETECTING RNA TRANSLATION” (Eclipse Bioinnovations, Inc., priority 2021, published 2023)",
  "key": {"[1]": {"system": "gene FUS", "experiment": "Bead barcoded multiplexed RBP/RPS2 binding, genome track view (IGV) with normalized read counts", "assay_type": "cell-based, human", "conditions": "cells treated with 200 nM Risdiplam for 2 hours vs DMSO control; FIG. 7", "description": "FIG. 7 depicts an IGV screenshot of the gene FUS with normalized read counts for 7 different RBPs and the translation component protein RPS2. Two conditions are shown; one DMSO control and the other cells treated with 200 nM Risdiplam. […] This example illustrates a protocol for a bead barcoded experiment for detecting RNA modifications from cells with RBPs according to an embodiment of the disclosure. The buffers described below are the same as mentioned above with respect to Example 2 unless explicitly stated otherwise. First, Trypan blue stain (Thermo Fisher Scientific, cat. #15250061) or equivalent live cell counting assay was used to valuate cell viability. Next, cell viability was reviewed to be sure it was >95% to ensure intact RNA. Cells were grown to a proper confluence, in most cases grow cells to 75% confluence. Some cells were treated with 200 nM Risdiplam for 2 hours prior to harvesting. First, resuspend anti-rabbit Dynabeads by vortexing or pipetting up and down several times. Second, transfer 500 μL of beads (enough for 20 samples) into a 1.5 mL Eppendorf tube and place tube on DynaMag-2. Third, Remove the supernatant and wash beads thrice with 500 μL PBS, resuspending beads with each wash. Fourth, remove beads from magnet, resuspend beads in 500 μL PBS, add 1.65 μL DBCO-NHS (10 mM in DMSO), and rotate tube at room temperature for 1 hour. […]"}, "[2]": {"system": "TOP motif containing gene, GAPDH", "experiment": "Ribo-ABC (oligo conjugated antibody) ribosome-bound RNA read counts, genome track view", "assay_type": "cell-based", "conditions": "ribosomal proteins RPS2, RPS3, RPS14, FIG. 2 top panel", "description": "(§1) Three different ribosomal proteins were used RPS2, RPS3, RPS14.\n(§2) This example provides a protocol for a Ribo-ABC experiment according to an embodiment of the disclosure.\n(§3) First, the tissue culture plate was placed on leveled ice or on a cooling block pre-chilled to 4° C. Second, the above (plate plus ice or cooling block) was placed into the UV cross-linker. Third, the tissue culture plate lid was removed for cross-linking. Fourth, cross-link at 254-nm UV with an energy setting of 400 mJoules/cm^2. Fifth, while keeping the cells on ice, a cell scraper (Corning, cat. #CLS3010-10EA) was used to scrape the plate. Sixth, the cells were transferred to a 15 mL conical tube. Seventh, the plate was washed once with 5 mL of chilled PBS and added to the same 15 mL tube. Eight, gently resuspended until the sample was homogeneous. Ninth, the 15 mL conical tube was centrifuged at 200×g for 3 minutes at 4° C. Tenth, the sample was aspirated and discarded supernatant. Eleventh, the desired amount of cells for flash freezing was resuspended in chilled PBS (typically 10×10^6 cells per mL). Twelfth, the sample was transferred into 1.5 mL LoBind tubes Tubes (typically 1 mL of 10×10^6 cells per mL). Thirteenth, the sample was spun down at 200×g for 3 minutes at 4° C. Fourteenth, the supernatant was aspirated, and the cell pellets were frozen quickly by submerging the 1.5 mL LoBind tubes in liquid nitrogen. […]"}, "[3]": {"system": "non-TOP motif containing gene, PARP1", "experiment": "Ribo-ABC (oligo conjugated antibody) ribosome-bound RNA read counts, genome track view", "assay_type": "cell-based", "conditions": "ribosomal proteins RPS2, RPS3, RPS14, FIG. 2 bottom panel", "description": "as §1, §2, §3"}},
  "note": "“Also recorded” adds a separate entry of the source.",
  "data": [
    {"compound": "Cc1cn2nc(-c3cc(=O)n4cc(N5CCNC6(CC6)C5)ccc4n3)cc(C)c2n1", "note": "[Risdiplam]", "values": [
      {"measurement": "change in binding on gene FUS (7 RBPs and RPS2) versus DMSO control", "setting": "[1]", "result": "a change in binding across the two conditions; also recorded: a difference observed between the two conditions"}
    ]},
    {"compound": "Torin", "values": [
      {"measurement": "change in read counts of GAPDH upon Torin treatment", "setting": "[2]", "result": "reduced read counts"},
      {"measurement": "change in read counts of PARP1 upon Torin treatment", "setting": "[3]", "result": "no change in read counts"}
    ]}
  ]
}
